Measurements: US20180207228A1, “PEPTIDE COMBINATIONS AND USES THEREOF FOR TREATING GRASS ALLERGY” (ALK-Abelló A/S, priority 2015, published 2018)
Like-named read-outs stand apart in the source and are kept apart here. Where no end group is shown, it is not given here.

Columns and labels:
[1] = Extended solubility and short term stability study (visual, U-HPLC recovery, DLS, 90LS, UV-VIS, sum of scores); details: for solubility: pH 4.5
Experimental: For that purpose, the peptides were provided as acetate salts (produced by Innovagen® at a >10 mg scale of manufacturing). To take into account batch-to-batch variations, some peptides were tested from other batches of the manufacturer Innovagen®, as well as from another manufacturer (Almac) and from in-house production. Solubility experiments were performed on peptide in solution in concentrations ranging from 0.5 mg/mL to 3 mg/mL (dry matter)—with the following solvents: • Water • Acetate buffer, pH 4.5 (25 mM sodium acetate containing 250 mM D-Mannitol) • Phosphate buffer, pH 7.0 (25 mM sodium phosphate containing 250 mM D-Mannitol) • Glycine buffer, pH 8.5 (25 mM glycine containing 250 mM D-Mannitol)
The solubility of the peptides was initially investigated by visual inspection and U-HPLC recovery. Visual inspection included assessment of turbidity and presence of particles/aggregates of each peptide solution before and after centrifugation as well as visual inspection of pelleted material. The visual inspection were reported as “clear solution”, “very small precipitation only visible with a magnifier”, “precipitation visible/turbid solution” or “more precipitation/turbid solution”. Filtration of peptide solutions were conducted using syringe based filters containing a polyethersulfone (PES) membrane chemistry and a pore size of 0.2 μm. The amount of the peptide in the supernatant of a filtered sample was determined using U-HPLC with reverse phase chromatography and recovery were determined as described in Example 5.
Peptide solutions were investigated at a time point of 1 hour after production, but were also repeated at later time point (e.g. 24. 48 or 96 hours) to investigate the stability of the peptides.
Peptide solutions were investigated to determine the presence of turbidity/particles/aggregates by use of optical density (OD) and change in UV-VIS absorbance at a wavelength of 320 nm, of the filtrate. […] In addition or as an alternative, the amount of the peptide in the supernatant of a filtered sample was determined using U-HPLC as described above, with the exception that the recovery was determined by dividing the peak area of the filtered sample in relation to the peak area in the original solution prior to filtration. See also Example 5 for further details regarding UV-VIS, and recovery measured by U-HPLC.
The peptides were scored in relation to the outcome of the above mentioned tests: For each peptide in a given buffer and at a given concentration, a sum of test scores was calculated and the sum used to rank the peptides according to solubility: • 1. […] DLS peak 1 number 3 nm gave a score of 1, 3-10 nm gave a score of 2, 10-100 nm gave a score of 3, >100 nm gave a score of 4. • 5. 90LS at 400 nm: Intensity <450 gave a score of 1, <800 gave a score of 2, >800 gave a score of 3. • 6. UV-VIS change in absorbance at 320 nm within 24 hours: 0.01 gave a score of 1, ≤0.05 gave a score of 2, 0.0.2 gave a score of 3 and >0.2 gave a score of 4.

[2] = Bio-stability in 25% human serum (T½, degradation pattern by UHPLC and MS); type: in vitro ADME
Experimental: The supernatant was analyzed by UHPLC-UV/VIS and the peak-height/peak-area of the original peptide was determined at each time point. T½ of the original peptide was estimated by plotting Ln (peak-area) as a function of time. […] Therefore, the degradation pattern of each peptide was additionally studied. Extra peaks compared to the peak of the original peptide in the chromatogram were notified as potential degradation products. To assess the degradation pattern of each peptide and identify degradation products, the test samples were also investigated by mass spectroscopy (MS). Some peptides, for example, may be prone to cleavage by endopeptidases resulting in short peptide fragments unfit for binding to the HLA binding site, whereas other peptides may be more prone to cleavage by exopeptidases which may cleave one or more amino acid residues from the N or C-terminal end of the peptide resulting in a conserved HLA binding. […] Therefore, it is important to look at both the MS data and functional data to estimate the extent and effect of the degradation.

[3] = test system: grass pollen allergic donor derived T cell lines; test: Dose response titration in T cell proliferation assay; type: cell-based, human; details: single peptides, FIG. 21
Experimental: The dose-response relationship was tested by measuring the percentage of donor response (i.e. the percentage of donor coverage) in concentrations of 2.0, 0.1, 0.005 and 0.00025 μg/ml for the peptide combinations and in concentrations of 2.0, 0.2, 0.02 and 0.002 μg/ml for single peptides. The donor response was determined using T cell proliferation data as described in Example 3.
Relative magnitude value for a peptide or a peptide combination was calculated as percentage of highest T cell response to an allergen or a mix, by the same donor. In this way, allergen or peptide combination with highest magnitude of T cell response gets a value of 100 and T cell response magnitude of remaining peptides/peptide combinations are normalized or calculated relative to 100, for example Relative magnitude=100*(T cell response magnitude of peptide or combination/Highest T cell response in a donor). Relative magnitude were calculated mainly on Phl p 1. For donors non reactive to Phl p 1, Phl p 5 was used as reference
The donors were selected by seeking to maximize the HLA class II diversity in the donor cohort.
For peptide combinations, two set-ups were used:
A) Concentrations of 2.0, 0.1, 0.005 and 0.00025 μg/ml were tested on a set of T cell lines derived from 9 grass pollen allergic donors (same experiment as the data shown in FIG. 7b.).
B) Concentrations of 2.0, 0.066, 0.0022 and 0.00007 μg/ml were used on a set of T cell lines derived from 18 grass pollen allergic donors (same set as the donors used for testing of single peptides as described above).
Relative magnitude value for a peptide or a peptide combination was calculated as percentage of highest T cell response to an allergen or a mix, by the same donor. In this way, allergen or peptide combination with highest magnitude of T cell response gets a value of 100 and T cell response magnitude of remaining peptides/peptide combinations are normalized or calculated relative to 100, for example Relative magnitude=100*(T cell response magnitude of peptide or combination/Highest T cell response in a donor). […]

Row | solubility in all the test samples (concentrations and pH tested), all solubility tests [1] | solubility in aqueous solutions and short-term stability [1] | solubility [1] | Substance | other results
1 |  |  |  | AYESYKFIPALEAAVKQAYA-OH [peptide 285] | solubility by ranking scheme based on a sum of scores ([1]; 3 mg/ml, buffers tested): good solubility; solubility in aqueous solutions and short-term stability ([1]; pH in the range of 4.5 to 8.5): sufficiently soluble; <−3aa (%) ([2]; degradation details at 60 min): 0%; Sum full length or −1aa to −3aa ([2]; degradation details at 60 min): 100%; −1aa to −3aa (%) ([2]; degradation details at 60 min): 34%; half-life ([2]; male, 37° C.): 1.37 h; remaining at 1 h ([2]; male, degradation details at 60 min, read-out: Full length (%)): 66%
2 | good solubility | sufficiently soluble | acceptable solubility | TDDNEEPIAPYHFDLSGHAF-OH [peptide 204] | 
3 |  | sufficiently soluble | acceptable solubility | WGAIWRIDTPDKLTGPFTVR-OH [peptide 211] | 
4 | good solubility | sufficiently soluble | acceptable solubility | STGGAYESYKFIPALEAAVK-OH [compound 71] | average relative magnitude calculated over all donors [3]: high
5 |  | sufficiently soluble | acceptable solubility | DKYRTFVATFGAASNKAFAE-OH [peptide 231] | 
